Test results from patent US20060281766A1 (priority 2003, published 2006).
Where two headings read alike, the source gives them in different places.

System: Phytophthora infestans
Assay type: in vivo
Conditions: individual active compound, tomato leaves, infected next day, assessed after 6 days

| SMILES | Efficacy in % of the untreated control (0.25 ppm in the spray liquor) | Efficacy in % of the untreated control (16 ppm in the spray liquor) | Efficacy in % of the untreated control (1 ppm in the spray liquor) |
| --- | --- | --- | --- |
| CC1CCN(c2c(-c3c(F)cc(F)cc3F)c(Cl)nc3ncnn23)CC1 [II, 5-chloro-7-(4-methylpiperidin-1-yl)-6-(2,4,6-trifluorophenyl)-[1,2,4]tri-azolo[1,5-a]pyrimidine] | 0% | 0% | – |
| CC1CCN(c2c(-c3c(F)cccc3Cl)c(Cl)nc3ncnn23)CC1 [A] | 0% | 0% | – |
| C[C@H](Nc1c(-c2c(F)cc(F)cc2F)c(Cl)nc2ncnn12)C(F)(F)F [B] | 0% | 0% | – |
| CNC(=O)/C(=N/OC)c1ccccc1COc1cc(C)ccc1C [I, dimoxystrobin] | 0% | – | 56% |
